# According to article PMC7658073 (Clinical Pharmacokinetics, 2020):
# Entries after “also recorded” stand apart in the source; their conditions may differ.
# How the values were obtained:
# Assay type in all cases: in vivo, human
# [1] = Phase I DDI study with sacubitril/valsartan; conditions: vericiguat at steady state with sacubitril/valsartan
# [2] = Phase I DDI study with sildenafil
# [3] = Phase I DDI study with midazolam
# [4] = sildenafil 100 mg with vericiguat vs with placebo
# [5] = midazolam with vericiguat 10 mg vs midazolam alone
Structure (SMILES),"Increase in AUC0–12,md (exposure) [1]","Increase in Cmax,md (peak concentration) [1]",further results
"CCCCC(=O)N(Cc1ccc(-c2ccccc2-c2nnn[nH]2)cc1)[C@H](C(=O)O)C(C)C [Valsartan, reference compound]",12%,13%,–
C[C@H](C[C@@H](Cc1ccc(-c2ccccc2)cc1)NC(=O)CCC(=O)O)C(=O)O [LBQ657],unchanged; also recorded: unaffected,unchanged; also recorded: unaffected,–
"CCCc1nn(C)c2c(=O)[nH]c(-c3cc(S(=O)(=O)N4CCN(C)CC4)ccc3OCC)nc12 [Sildenafil, reference compound]",–,–,"Increase in exposure of sildenafil [2, 4]: 13%; Increase in maximum concentration of sildenafil [2, 4]: 17%; Increase in exposure for sildenafil co-administered with vericiguat ([2]; sildenafil 25, 50 or 100 mg, vs sildenafil with placebo): ≤ 22.4%"
"Cc1ncc2n1-c1ccc(Cl)cc1C(c1ccccc1F)=NC2 [Midazolam, reference compound]",–,–,Reduction in midazolam exposure ([3]; after 3 days pre-treatment and 1 day co-treatment with vericiguat 10 mg): 18%
OCc1ncc2n1-c1ccc(Cl)cc1C(c1ccccc1F)=NC2 [1ʹ-hydroxy midazolam],–,–,"Decrease in AUC [3, 5]: 12%; Decrease in Cmax [3, 5]: 16%"
"CCOC(=O)[C@H](C)C[C@@H](Cc1ccc(-c2ccccc2)cc1)NC(=O)CCC(=O)O [Sacubitril, reference compound]",8%,18%,–
